Assay results published in the NIST ThermoML archive (doi:10.1016/j.jct.2018.03.014).

Test: cn = amount concentration of the nth substance listed, in mol/dm3
Conditions: 298.15 K, 101.3 kPa, Liquid, Taylor dispersion method

binary diffusion coefficient (c1 = 0.005): 1.06e-09 m2/s | binary diffusion coefficient (c1 = 0.1): 1.04e-09 m2/s
SMILES: NCC(=O)O [2-aminoacetic acid] + O
